The values that follow come from patent US8053439B2, “Benzophenone derivatives useful for inhibiting formation of microtubule” (Chong Kun Dang Pharmaceutical Corp., priority 2006, dated 2011).

The first test has as its system HL60 cells. Briefly: Inhibition effect of HL60 cell line growth (MTT, 3 days). It is filed as cell-based. Particulars: Homo sapiens, HL-60, 72 h, read-out: HL60 Growth Inhibition. Here is the method: 1. Inhibition Effect of HL60 Cell Line Growth
A 10% FBS-contained RPMI1640 badge was used for culturing HL60 cells. The test substance was prepared by dissolving in DMSO to a concentration of 10 mg/ml, and continuously diluting with PBS to a final concentration of 100 μg/ml to 0.03 μg/ml. In a 96-well microplate, 180 μl of the badge containing 6.0×10^4 cells/ml of cells and 20 μl of continuously diluted test substance were added. The mixture was cultured at 37° C. with 5% CO2 atmosphere for 3 days. After completion of the cultivation, 50 μl of a solution of 1.25 mg/ml MTT (3-(4,5-dimethylthiazol-2-yl)-2,5-diphenyltetrazolium bromide) dissolved in PBS was added to all wells, and the resulting mixture was reacted at 37° C. for 3 hours. Thus formed formazan crystals were dissolved in 150 μl of DMSO, and an absorbance was measured at 570 nm.
`COc1cc(C(=O)c2ccc(-c3cccnc3)cc2-n2cncn2)cc(OC)c1OC` [Compound 511, (4-pyridin-3-yl-2-[1,2,4]thiazol-1-yl-phenyl)(3,4,5-trimethoxyphenyl)methanone]: the IC50 came to 100 nM.

The same test, now with this note: Homo sapiens, HL-60, 72 h; HL60 cells, 3 days culture, MTT, absorbance 570 nm; read-out: HL60 Growth Inhibition.
As to `COc1cc(C(=O)c2cc(-c3nccs3)ccc2NCCCO)cc(OC)c1OC` [Compound 348, (2-(3-hydroxypropylamino)-5-(thiazol-2-yl)phenyl)(3,4,5-trimethoxyphenyl)methanone], the IC50 was 100 nM.

Regarding `COc1cc(C(=O)c2cc(-c3ccco3)ccc2-n2ccnc2)cc(OC)c1OC` [Compound 354, (5-(furan-2-yl)-2-(1H-imidazol-1-yl)phenyl)(3,4,5-trimethoxyphenyl)methanone], the IC50 came out at 110 nM. On the same count and under the same terms, the same measure for `COc1cc(C(=O)c2cc(-c3ncco3)ccc2-n2cncn2)cc(OC)c1OC` [Compound 359, (5-(oxazol-2-yl)-2-(H-1,2,4-triazol-1-yl)phenyl)(3,4,5-trimethoxyphenyl)methanone]: 100 nM; for `COc1cc(C(=O)c2cc(-c3ccc[nH]3)ccc2NCCCO)cc(OC)c1OC` [Compound 363, (2-(3-hydroxypropylamino)-5-(1H-pyrrole-2-yl)phenyl)(3,4,5-trimethoxyphenyl)methanone]: 110 nM; for `COc1cc(C(=O)c2cc(-c3nccs3)ccc2-c2cncnc2)cc(OC)c1OC` [Compound 365, (2-(pyrimidin-5-yl)-5-(thiazol-2-yl)phenyl)(3,4,5-trimethoxyphenyl)methanone]: 70 nM. Regarding `COc1cc(C(=O)c2cc(-c3nccs3)ccc2C(O)CO)cc(OC)c1OC` (stereo not drawn) [Compound 372, (2-(1,2-dihydroxyethyl)-5-(thiazol-2-yl)phenyl)(3,4,5-trimethoxyphenyl)methanone], the IC50 was 110 nM. As to `COC(=O)c1ccc(-c2nccs2)cc1C(=O)c1cc(OC)c(OC)c(OC)c1` [Compound 374, 4-(thiazol-2-yl)-2-(3,4,5-trimethoxybenzoyl)benzoic acid methyl ester], the IC50 was determined as 100 nM. With `COc1cc(C(=O)c2cc(-c3nccs3)ccc2-c2cnco2)cc(OC)c1OC` [Compound 375, (2-(oxazol-5-yl)-5-(thiazol-2-yl)phenyl)(3,4,5-trimethoxyphenyl)methanone], the IC50 was determined as 40 nM. Take `COc1cc(C(=O)c2cc(-c3ccco3)ccc2-n2ccnn2)cc(OC)c1OC` [Compound 379, (5-(furan-2-yl)-2-(1H-1,2,3,-triazol-1-yl)phenyl)(3,4,5-trimethoxyphenyl)methanone]: the IC50 was found to be 110 nM. Consider `COc1cc(C(=O)c2cc(-c3ccccn3)ccc2NCCCO)cc(OC)c1OC` [Compound 380, (2-(3-hydroxypropylamino)-5-(pyridin-2-yl)phenyl)(3,4,5-trimethoxyphenyl)methanone], for which the IC50 was determined as 110 nM.

Turning to `COc1cc(C(=O)c2cc(-c3cccs3)ccc2-n2cncn2)cc(OC)c1OC` [Compound 391, (5-(thiophen-2-yl)-2-(1H-1,2,4,-triazol-1-yl)phenyl)(3,4,5-trimethoxyphenyl)methanone], the IC50 was 120 nM.

With `COc1cc(C(=S)c2cc(-c3ccco3)ccc2-n2cncn2)cc(OC)c1OC` [Compound 399, (5-(furan-2-yl)-2-(1H-1,2,4-triazol-1-yl)phenyl)(3,4,5-trimethoxyphenyl)methanethione], the IC50 was determined as 110 nM.

As to `COc1cc(C(=O)c2cc(-c3nccs3)ccc2-n2cnnn2)cc(OC)c1OC` [Compound 401, (2-(1H-tetrazol-1-yl)-5-(thiazol-2-yl)phenyl)(3,4,5-trimethoxyphenyl)methanone], the IC50 came to 30 nM. On the same count and under the same terms, the same measure for `COc1cc(C(=O)c2cc(-c3ccc[nH]3)ccc2-n2cncn2)cc(OC)c1OC` [Compound 409, (5-(1H-pyrrole-2-yl)-2-(1H-1,2,4-triazol-1-yl)phenyl)(3,4,5-trimethoxyphenyl)methanone]: 30 nM. `COc1cc(C(=O)c2cc(-c3nccs3)cnc2-n2cncn2)cc(OC)c1OC` [Compound 410, (5-(thiazol-2-yl)-2-(1H-1,2,4-triazol-1-yl)pyridin-3-yl)(3,4,5-trimethoxyphenyl)methanone]: the IC50 amounted to 100 nM.

Turning to `COc1cc(C(=O)c2ccc(-c3ccco3)cc2-n2cncn2)cc(OC)c1OC` [Compound 443, (4-(furan-2-yl)-2-(1H-1,2,4-triazol-1-yl)phenyl)(3,4,5-trimethoxyphenyl)methanone], the IC50 is 80 nM. For the compound `O=C(c1ccc(-c2ccco2)cc1-n1cncn1)c1c(F)c(F)c(F)c(F)c1F` [Compound 446, (4-(furan-2-yl)-2-(1H-1,2,4,-triazol-1-yl)phenyl)(pentafluorophenyl)methanone], the IC50 is 170 nM. Turning to `COc1cc(C(=O)c2ccc(-c3cncnc3)cc2-n2cncn2)cc(OC)c1OC` [Compound 455, (4-(pyrimidin-5-yl)-2-(1H-1,2,4,-triazol-1-yl)phenyl)(3,4,5-trimethoxyphenyl)methanone], the IC50 was determined as 3100 nM. As for `COc1cc(C(=O)c2ccc(-c3ccccc3O)cc2F)cc(OC)c1OC` [Compound 457, (2′-hydroxy-3-(fluoro)biphenyl-4-yl)(3,4,5-trimethoxyphenyl)methanone], the IC50 turned out to be 11600 nM. Same read-out and setting: the same measure for `COc1cc(C(=O)c2ccc(-c3ccsc3)cc2F)cc(OC)c1OC` [Compound 458, (2-fluoro-4-(thiophen-3-yl)phenyl)(3,4,5-trimethoxyphenyl)methanone]: 3180 nM; for `COc1cc(C(=O)c2ccc(-c3ccsc3)cc2-n2cncn2)cc(OC)c1OC` [Compound 462, (4-(thiophen-3-yl)-2-(1H-1,2,4,-triazol-1-yl)phenyl)(3,4,5-trimethoxyphenyl)methanone]: 33 nM; for `COc1cc(C(=O)c2ccc(-c3nccs3)cc2-n2cncn2)cc(OC)c1OC` [Compound 464, (4-(thiazol-2-yl)-2-(1H-1,2,4-triazol-1-yl)phenyl)(3,4,5-trimethoxyphenyl)methanone]: 90 nM. For the compound `COc1cc(C(=O)c2ccc(-c3cccc(NS(C)(=O)=O)c3)cc2-n2cncn2)cc(OC)c1OC` [Compound 476, N-(3′-[1,2,4]triazol-1-yl-4′-(3,4,5-trimethoxybenzoyl)biphenyl-3-yl)methanesulfonamide], the IC50 turned out to be 25 nM. Take `CCS(=O)(=O)c1cccc(-c2ccc(C(=O)c3cc(OC)c(OC)c(OC)c3)c(-n3cncn3)c2)c1` [Compound 479, (3′-ethanesulfonyl-3-[1,2,4]triazol-1-yl-biphenyl-4-yl)(3,4,5-trimethoxyphenyl)methanone]: the IC50 is 25 nM.

`COc1cc(C(=O)c2ccc(-c3nccs3)cc2OS(C)(=O)=O)cc(OC)c1OC` [Compound 484, methanesulfonic acid 5-(thiazol-2-yl)-2-(3,4,5-trimethoxybenzoyl)phenyl ester]: the IC50 stood at 4240 nM. In the case of `COc1cc(C(=O)c2cc(-c3cccc(NS(C)(=O)=O)c3)ccc2F)cc(OC)c1OC` [Compound 486, N-[4′-fluoro-3′-(3,4,5-trimethoxybenzoyl)-biphenyl-3-yl]-methanesulfonamide], the IC50 was determined as 160 nM. Consider `COc1cc(C(=O)c2ccc(-c3cccc(NS(C)(=O)=O)c3)cc2N)cc(OC)c1OC` [Compound 494, N-(3′-amino-4′-(3,4,5-trimethoxybenzoyl)-biphenyl-3-yl)methanesulfonamide], for which the IC50 was 120 nM.

Consider `COc1cc(C(=O)c2ccc(-c3cccc(C#N)c3)cc2-n2cncn2)cc(OC)c1OC` [Compound 506, 3′-[1,2,4]triazol-1-yl-4′-(3,4,5-trimethoxybenzoyl)-biphenyl-3-carbonitrile], for which the IC50 was determined as 160 nM. As for `Nc1nc(-c2ccc(C(=O)c3ccccc3)c(-n3cncn3)c2)cs1` [Compound 519, (4-(2-aminothiazol-4-yl)-2-(1H-1,24-triazol-1-yl)phenyl)(phenyl)methanone], the IC50 is 25000 nM. Same read-out and setting: the same measure for `COc1cc(C(=O)c2ccc(-c3cccc(N)c3)cc2-n2cncn2)cc(OC)c1OC` [Compound 525, (3′-amino-3-(1H-1,2,4-triazol-1-yl)biphenyl-4-yl)(3,4,5-trimethoxyphenyl)methanone]: 90 nM; for `COc1cc(C(=O)c2ccc(-c3c[nH]c(NC(C)=O)n3)cc2-n2cncn2)cc(OC)c1OC` [Compound 531, N-(4-(3-(1H-1,2,4-triazol-1-yl)-4-(3,4,5-trimethoxybenzoyl)phenyl)-1H-imidazol-2-yl)acetamide]: 330 nM; for `COc1cc(C(=O)c2ccc(-c3cncs3)cc2-n2cncn2)cc(OC)c1OC` [Compound 534, (4-(thiazol-5-yl)-2-(1H-1,2,4-triazol-1-yl)phenyl)(3,4,5-trimethoxyphenyl)methanone]: 60 nM. Take `COc1cc(C(=O)c2ccc(-c3nccs3)cc2-n2cncn2)cc(OC)c1OC(F)F` [Compound 538, (4-(difluoromethoxy)-3,5-dimethoxyphenyl)(4-(thiazol-2-yl)-2-(1H-1,2,4-triazol-1-yl)phenyl)methanone]: the IC50 was determined as 280 nM. The same measure, in the same setting: the result for `COc1cc(C(=O)c2ccc(-c3csc(N)n3)cc2-n2cncn2)cc(OC)c1OC(F)F` [Compound 547, (4-(2-aminothiazol-4-yl)-2-(1H-1,2,4-triazol-1-yl)phenyl)(4-(difluoromethoxy)-3,5-dimethoxyphenyl)methanone] reads 30 nM.

As to `COc1cc(C(=O)c2ccc(-c3cccc(S(N)(=O)=O)c3)cc2-n2cncn2)cc(OC)c1OC` [Compound 550], the IC50 came to 20 nM.
